The numbers were not newly measured in patent EP2566451B1, “PHARMACEUTICAL COMPOSITIONS COMPRISING CEFDITOREN PIVOXIL” (Bilgic, Mahmut, priority 2010, dated 2011), which cites them from elsewhere.

The conditions of this data set: in water; stated in the background section, approximately.

In the case of `CO/N=C(\C(=O)N[C@@H]1C(=O)N2C(C(=O)OCOC(=O)C(C)(C)C)=C(/C=C\c3scnc3C)CS[C@H]12)c1csc(N)n1` [Cefditoren pivoxil, (6R,7R)-pivaloyloxymethyl 7-[(Z)-2-(2-aminothiazol-4-yl)-2-(methoxyimino)acetamido]-3-[(Z)-2-(4-methylthiazol-5-yl)vinyl]-8-oxo-5-thia-1-azabicyclo[4.2.0]oct-2-ene-2-carboxylate], the water solubility result is recorded as “less than 1 mg/ml”.
